Here are results for 15 compounds from ChEMBL document CHEMBL1152743, “Design and synthesis of 1,2-annulated adamantane piperidines with anti-influenza virus activity” (Bioorg Med Chem, 2009).

Series [1] is described as follows: Cytotoxicity against MDCK cells assessed as changes in cell morphology after 72 hrs […]. The series is classed as cell-based, Canis lupus familiaris. The settings on record: dog. On the technique in general: Tetrazolium assays rely on reduction of a dye to a coloured formazan, in cell work by metabolically active cells.
Series [2] in a line: Selectivity index, ratio of MCC for MDCK cells to EC50 for influenza A virus H3N2. The series is classed as toxicity, cell-based. The settings on record: dog.
A further series relates to Influenza B virus. Put plainly: Antiviral activity against influenza B virus. The series is classed as functional, organism-based.
Series [3] deals with Influenza A virus. The experiment in a line: microbe, parasite or virus in culture. The following applies: H3N2, 72 h.
Description: (§1) Antiviral activity against influenza A virus H3N2 assessed as inhibition of virus-induced cytopathic effect after 72 hrs by MTS assay
Series [4] concerns Influenza A virus. Type of series: functional, organism-based. The following applies: H3N2, 500 uM.
Series [5] has as its system Influenza A virus.
Description: as §1

The structures appear in SMILES notation. Active and inactive are the calls of the source. The rule behind the calls is not given here.

With `NC12CC3CC(CC(C3)C1)C2` [AMANTADINE], the MCC at 72 h in series [1] was above 500 µM. Moreover, the selectivity ratio in series [2] is above 250. Further, in the series on Influenza B virus, the outcome was inactive. In the series on Influenza A virus [3], the EC50 (usually the concentration that produces a half-maximal response) came to 2000 nM.

Consider `CN1CCC2C3CC4CC(C3)CC2(C4)C1` (stereo not given), for which the outcome with Influenza A virus [4] and with Influenza B virus was inactive.

Regarding `C1CC23CC4CC(CC(C4)C2CN1)C3` (stereo not given), the outcome in the series with Influenza A virus [4] and with Influenza B virus was inactive.

`C1CC2C3CC4CC(C3)CC2(CN1)C4` (stereo not given): the MCC at 72 h in series [1] came out at 439 µM. For the same compound, the selectivity ratio in series [2] was above 732. Also, in the series with Influenza B virus, the outcome was inactive. For the same compound, the EC50 in the series on Influenza A virus [3] worked out at 600 nM.

In the case of `CN1CC2C3CC4CC(C3)CC2(C4)C1` (stereo not given), the MCC at 72 h in series [1] worked out at 83 µM. Besides, in series [2], the selectivity ratio was 35. Further, in the series on Influenza B virus, the outcome was inactive. The compound also yielded an EC50 in the series on Influenza A virus [3] of 2400 nM.

For `C1CC23CC4CC(CC(C4)C2N1)C3` (stereo not given), in series [1], the MCC at 72 h turned out to be 468 µM. In addition, in series [2], the selectivity ratio came to 217. Moreover, the outcome with Influenza B virus was inactive. For the same compound, the EC50 in the series on Influenza A virus [3] stood at 2200 nM.

Take `CCN1CCC23CC4CC(CC(C4)C12)C3` (stereo not given): the MCC at 72 h in series [1] worked out at 439 µM. Also, the selectivity ratio in series [2] came out at 128. For the same compound, the result in the series with Influenza B virus was inactive. The compound also returned a half-maximal effective concentration (EC50) in the series on Influenza A virus [3] of 3400 nM.

`CC(N)C12CC3CC(CC(C3)C1)C2` (stereo not given) [RIMANTADINE]: the MCC at 72 h in series [1] is above 500 µM. The result in the series on Influenza B virus was inactive. In the series with Influenza A virus [3], this compound yielded an EC50 of 360 nM.

As for `CN1CCCC23CC4CC(CC(C4)C12)C3` (stereo not given), in series [1], the MCC at 72 h stood at 83 µM. Moreover, the selectivity ratio in series [2] was determined as 19. For the same compound, the result in the series with Influenza B virus was inactive. In addition, in the series on Influenza A virus [3], it took 4400 nM to reach a half-maximal effect (EC50).

Turning to `CN1CCC23CC4CC(CC(C4)C2C1)C3` (stereo not given), the outcome in the series on Influenza A virus [4] and with Influenza B virus was inactive.

Regarding `C1CNC2C3CC4CC(C3)CC2(C1)C4` (stereo not given), the MCC at 72 h in series [1] turned out to be 439 µM. Moreover, the selectivity ratio in series [2] turned out to be 106. In the series with Influenza B virus, the result was inactive. The compound further returned an EC50 with Influenza A virus [3] of 4100 nM.

For the compound `NC(=O)c1ncn([C@@H]2O[C@H](CO)[C@@H](O)[C@H]2O)n1` [RIBAVIRIN], the MCC at 72 h in series [1] turned out to be 20 µM. For the same compound, in the series with Influenza B virus, the result was inactive. In the series with Influenza A virus [5], this compound gave an EC50 of 8.7 µM.

Consider `CCN1CCC23CC4CC(CC(C4)C2C1)C3` (stereo not given), for which the outcome in the series on Influenza A virus [4] and in the series with Influenza B virus was inactive.

Turning to `CN1CCC23CC4CC(CC(C4)C12)C3` (stereo not given), the MCC at 72 h in series [1] was determined as 83 µM. In series [2], the selectivity ratio is 11. In the series on Influenza B virus, the result was inactive. The compound further came in with an EC50 with Influenza A virus [3] of 7700 nM.

With `C1C2CC3CC1CC1(CNCC31)C2` (stereo not given), in series [1], the MCC at 72 h was 94 µM. Further, the selectivity ratio in series [2] is 200. The outcome in the series on Influenza B virus was inactive. Also, in the series with Influenza A virus [3], it took 500 nM to reach a half-maximal effect (EC50).
